Tests used:
barnyardgrass [1] = experiment: Test A pre-/postemergence herbicide test; type: in vivo, Echinochloa crus-galli
Summary of the method: (§1)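 Scoring was visual, relative to untreated controls, on a 0–100 scale after about 10 greenhouse days. Preemergence treatment used a directed soil spray over seeded loam/sand; postemergence treatment targeted one- to two-leaf plants of 2–10 cm.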

morningglory = experiment: Test A pre-/postemergence herbicide test; type: in vivo, Ipomoea spp.
Summary of the method: as §1

corn = experiment: Test A pre-/postemergence herbicide test; type: in vivo, Zea mays
Summary of the method: as §1

sedge, umbrella = experiment: Test B flooded paddy test; type: in vivo, Cyperus difformis; conditions: 250 g ai/ha, Flood; scale of 0 to 100 where 0 is no effect and 100 is complete control
Protocol: (§2) Plant species in the flooded paddy test selected from rice (Oryza sativa), sedge, umbrella (small-flower umbrella sedge, Cyperus difformis), ducksalad (Heteranthera limosa), and barnyardgrass (Echinochloa crus-galli) were grown to the 2-leaf stage for testing. At time of treatment, test pots were flooded to 3 cm above the soil surface, treated by application of test compounds directly to the paddy water, and then maintained at that water depth for the duration of the test. Treated plants and controls were maintained in a greenhouse for 13 to 15 days, after which time all species were compared to controls and visually evaluated. Plant response ratings, summarized in Table B, are based on a scale of 0 to 100 where 0 is no effect and 100 is complete control. A dash (-) response means no test result.

pigweed = experiment: Test A pre-/postemergence herbicide test; type: in vivo, Amaranthus retroflexus
Summary of the method: as §1

velvetleaf = experiment: Test A pre-/postemergence herbicide test; type: in vivo, Abutilon theophrasti
Summary of the method: as §1

crabgrass, large = experiment: Test A pre-/postemergence herbicide test; type: in vivo, Digitaria sanguinalis
Summary of the method: as §1

rice = experiment: Test B flooded paddy test; type: in vivo, Oryza sativa; conditions: 250 g ai/ha, Flood; scale of 0 to 100 where 0 is no effect and 100 is complete control
Protocol: as §2

ducksalad = experiment: Test B flooded paddy test; type: in vivo, Heteranthera limosa; conditions: 250 g ai/ha, Flood; scale of 0 to 100 where 0 is no effect and 100 is complete control
Protocol: as §2

wheat = experiment: Test A pre-/postemergence herbicide test; type: in vivo, Triticum aestivum
Summary of the method: as §1

giant foxtail = experiment: Test A pre-/postemergence herbicide test; type: in vivo, Setaria faberii
Summary of the method: as §1

barnyardgrass [2] = experiment: Test B flooded paddy test; type: in vivo, Echinochloa crus-galli; conditions: 250 g ai/ha, Flood; scale of 0 to 100 where 0 is no effect and 100 is complete control
Protocol: as §2

[3] = Postemergence, 1000 g ai/ha, 0 to 100 scale (0 no effect, 100 complete control)
[4] = Preemergence, 1000 g ai/ha, visual rating on 0 to 100 scale (0 no effect, 100 complete control), approx. 10 days
[5] = Postemergence, 125 g ai/ha, 0 to 100 scale, 0 no effect, 100 complete control
[6] = Postemergence, 500 g ai/ha, 0 to 100 scale (0 no effect, 100 complete control)
[7] = Preemergence, 125 g ai/ha, visual rating on 0 to 100 scale (0 no effect, 100 complete control)
[8] = preemergence, 500 g ai/ha, 0 to 100 scale

With `O=C1NCC(c2ccc(F)c(F)c2)C1C(=O)Nc1ccccc1` (racemic) [Compound 30] the “Plant response rating, Barnyardgrass” value (barnyardgrass [1]; [3]) was 90, the “Plant response rating, Barnyardgrass” value (barnyardgrass [1]; [4]) was 90 and the “Plant response rating, Morningglory” value (morningglory; [3]) was 0. For the same compound, the “Plant response rating, Morningglory” value (morningglory; [4]) was 0, the “Plant response rating, Corn” value (corn; [3]) was 0 and the “Plant response rating, Corn” value (corn; [4]) was 0. The “Plant response rating, Sedge, Umbrella” value (sedge, umbrella) was 0, the “Plant response rating, Pigweed” value (pigweed; [3]) was 0 and the “Plant response rating, Pigweed” value (pigweed; [4]) was 0. For the same compound, the “Plant response rating, Velvetleaf” value (velvetleaf; [3]) was 0, the “Plant response rating, Velvetleaf” value (velvetleaf; [4]) was 0 and the “Plant response rating, Crabgrass, Large” value (crabgrass, large; [3]) was 80. For the same compound, the “Plant response rating, Crabgrass, Large” value (crabgrass, large; [4]) was 90, the “Plant response rating, Rice” value (rice) was 0 and the “Plant response rating, Ducksalad” value (ducksalad) was 0. For the same compound, the “Plant response rating, Wheat” value (wheat; [3]) was 0, the “Plant response rating, Wheat” value (wheat; [4]) was 0 and the “Plant response rating, Foxtail, Giant” value (giant foxtail; [3]) was 80. For the same compound, the “Plant response rating, Foxtail, Giant” value (giant foxtail; [4]) was 90 and the “Plant response rating, Barnyardgrass” value (barnyardgrass [2]) was 0.

`O=C1NCC(c2ccccc2)C1C(=O)Nc1ccccc1C(F)(F)F` (racemic) [Compound 82] was tested, and the “Plant response rating, Barnyardgrass” value (barnyardgrass [1]; [5]) was 0, the “Plant response rating, Barnyardgrass” value (barnyardgrass [1]; [6]) was 50 and the “Barnyardgrass plant response rating” value (barnyardgrass [1]; [7]) was 0. The “Plant response rating, Barnyardgrass” value (barnyardgrass [1]; preemergence, 500 g ai/ha, 0 to 100 scale (0 no effect, 100 complete control)) was 50, the “Plant response rating, Morningglory” value (morningglory; [5]) was 0 and the “Plant response rating, Morningglory” value (morningglory; [6]) was 10. For the same compound, the “Plant response rating, Morningglory” value (morningglory; [8]) was 0, the “Plant response rating, Corn” value (corn; [5]) was 0 and the “Plant response rating, Corn” value (corn; [6]) was 0. For the same compound, the “Corn plant response rating” value (corn; [7]) was 0, the “Plant response rating, Corn” value (corn; [8]) was 0 and the “Plant response rating, Sedge, Umbrella” value (sedge, umbrella) was 80. The “Plant response rating, Pigweed” value (pigweed; [5]) was 0, the “Plant response rating, Pigweed” value (pigweed; [6]) was 0 and the “Pigweed plant response rating” value (pigweed; [7]) was 0. The “Plant response rating, Pigweed” value (pigweed; [8]) was 0, the “Plant response rating, Velvetleaf” value (velvetleaf; [5]) was 0 and the “Plant response rating, Velvetleaf” value (velvetleaf; [6]) was 20. The “Velvetleaf plant response rating” value (velvetleaf; [7]) was 0, the “Plant response rating, Velvetleaf” value (velvetleaf; [8]) was 0 and the “Plant response rating, Crabgrass, Large” value (crabgrass, large; [5]) was 50. For the same compound, the “Plant response rating, Crabgrass, Large” value (crabgrass, large; [6]) was 70, the “Crabgrass, Large plant response rating” value (crabgrass, large; [7]) was 80 and the “Plant response rating, Crabgrass, Large” value (crabgrass, large; [8]) was 90. For the same compound, the “Plant response rating, Ducksalad” value (ducksalad) was 70, the “Plant response rating, Wheat” value (wheat; [5]) was 0 and the “Plant response rating, Wheat” value (wheat; [6]) was 10. For the same compound, the “Wheat plant response rating” value (wheat; [7]) was 0, the “Plant response rating, Wheat” value (wheat; [8]) was 0 and the “Plant response rating, Foxtail, Giant” value (giant foxtail; [5]) was 0. For the same compound, the “Plant response rating, Foxtail, Giant” value (giant foxtail; [6]) was 70, the “Foxtail, Giant plant response rating” value (giant foxtail; [7]) was 20 and the “Plant response rating, Foxtail, Giant” value (giant foxtail; [8]) was 70. For the same compound, the “Plant response rating, Barnyardgrass” value (barnyardgrass [2]) was 0.
